Literature values in US20040006100A1, “Monotherapy for the treatment of parkinson's disease with cyclooxygenase-2 (COX 2) inhibitor(S)” (priority 2002, published 2004).

fraction of levodopa that reaches the brain (levodopa alone administered orally): about 1% | fraction of orally administered levodopa metabolized by decarboxylase and then unable to cross the BBB (oral administration, without carbidopa): Up to 99%
Compound: N[C@@H](Cc1ccc(O)c(O)c1)C(=O)O [levodopa]
